From US9258995B2, “Organ cold storage composition and methods of use” (BOARD OF TRUSTEES OF THE UNIVERSITY OF ARKANSAS, priority 2009, dated 2016)
“Also recorded” adds a separate entry of the source.

Tests used:
[1] = test system: porcine renal mitochondrial respiratory complex II/III; assay: Mitochondrial respiratory complex activity, porcine ex vivo renal model; set-up: protection of porcine complex II/III: dose or concentration left out as unconfirmed
Procedure: FIG. 15 depicts graphs showing activities or (A) porcine renal mitochondrial respiratory complex I, (B) activities or porcine renal mitochondrial respiratory complex II/III, and (C) activities or porcine renal mitochondrial respiratory complex IV, after MitoQ treatment. MitoQ ([…]) protected porcine complex II/III following 24 hr cold preservation. Values are expressed as mean SEM (n=4).
Mitochondrial respiratory complex activity was also evaluated in the porcine ex vivo renal model at 24-h and 48-h CS. […] Protection of Complex II/III by MitoQ (100 μM) was significant following 24-h cold preservation.

porcine kidneys = assay: Nitrotyrosine staining of porcine kidneys during cold preservation; set-up: dose or concentration left out as unconfirmed
Procedure: FIG. 14 depicts micrographs and plots showing increased nitrotyrosine protein expression detected during cold preservation. (A) Representative images showing MitoQ (100 mM) mediated reduction of nitrotyrosine staining. (B) Expression level of total (combined cortex and medulla) nitrotyrosine was evaluated and scored. (C) Expression level of cortical and medulla nitrotyrosine was evaluated and scored. Error bar indicates Mean SEM (n=4). *P<0.05 compared to untreated kidneys at 24 and 48 hr within the cortex.
Nitrotyrosine staining and nitrotyrosine expression levels were used to determine protective effect of MitoQ on porcine kidneys during SC.

[2] = test system: mitochondrial respiratory complex II; assay: Mitochondrial respiratory complex activity, NRK cell mitochondria after CS; type: cell-based, rat; conditions: NRK cells, 4-h CS, 1 μM
Procedure: (§1) Normal rat kidney proximal tubular cells (NRK-52E; American Type Culture Collection, Manassas, Va.) were maintained in six-well 100 or 150-mm, or 150-mm plates in a humidified incubator gassed with 5% CO2 and 95% air at 37° C. in DMEM (Invitrogen, Carlsbad, Calif.) containing 5% fetal calf serum (FCS). Cells were grown to 60% confluence and divided into four treatment groups: 1) untreated (Untx), 2) CS, 3) CS+MitoQ, and 4) CS+DecylTPP. Untreated cells remained at 37° C. in DMEM containing 5% FCS (group 1). CS was initiated by washing cells with cold PBS (Invitrogen) twice and storing them in UW/Viaspan solution alone (4 h at 4° C.) (group 2), CS+MitoQ (1 μM) (group 3), or CS+DecylTPP (1 μM) (group 4). In separate experiments, cells were exposed to CS plus RW by replacing UW solution alone or UW solution containing MitoQ or DecylTPP with DMEM containing 5% FCS overnight (18 h at 37° C.).
(§2) NRK cell and rat kidney mitochondria were isolated by centrifugation on a sucrose density gradient. The activity of mitochondrial respiratory complexes I, II, III, or IV were assayed spectrophotometrically using 100 μg of mitochondrial protein at 30° C. as previously described.

[3] = test system: mitochondrial respiratory complex I; assay: as above; type: cell-based, rat; conditions: NRK cells, 4-h CS, 1 μM
Procedure: as §1, §2

[4] = test system: mitochondrial respiratory complex; assay: Mitochondrial respiratory complex activity in kidneys following cold storage (Example 1); set-up: species or system rat; conditions: following cold preservation (Example 1); MitoQ 100 μM
Procedure: FIG. 4 depicts a graph showing the effect of MitoQ treatment (100 μM) on mitochondrial respiratory complex activity in kidneys following cold storage *P<0.05 compared with control.
Rodent models of warm ischemia/reperfusion (I/R) (FIGS. 6-7) and cold renal preservation, as well as renal cell models of cold storage (FIG. 3-5) were used to evaluate the effectiveness of MitoQ in preventing renal damage during ischemia. […] In addition, Mito Q blunted mitochondrial superoxide production (Mitosox Red staining) and respiratory complex dysfunction following cold preservation (FIGS. 4-5).

[5] = test system: mitochondrial respiratory complex II; assay: Mitochondrial respiratory complex activity, rat kidney mitochondria after CS; conditions: rat kidneys, 4-h CS, 100 μM
Procedure: (§3) All animals were treated according to the National Institutes of Health Guide for the Care and Use of Laboratory Animals and the University of Arkansas for Medical Sciences Institutional Animal Care and Use Committee guidelines. Male Fischer 344 inbred rats (Charles Rivers Laboratories, Inc., Wilmington, Mass.) weighing between 250 and 300 g were anesthetized with ethrane, followed by shaving and prepping with betadine. […] Bulldog clamps were placed on the aorta and vena cava (proximal and distal to the renal vessels) to prevent blood flow to the kidneys. A 22-gauge surgical needle was used to puncture the rat's aorta to flush the renal grafts with saline (10 ml per kidney) using a small catheter. Once the kidneys started to turn light brown (perfusion), another vent was formed in the vena cava to allow blood flow from the kidneys. Once both kidneys were completely flushed, the right kidney was recovered and served as a control (group 1), and the left kidney was exposed to CS alone for 4 h at 4° C. (group 2). In additional experiments, kidneys were flushed with saline through the aorta using a small catheter followed by flushing the right kidney with saline containing MitoQ (100 μM) and the left kidney with saline containing DecylTPP (100 μM) (10 ml per kidney). Tissues were recovered and stored in CS+MitoQ (100 μM; right kidney) or CS+DecylTPP (100 μM; left kidney) for 4 h at 4° C. (groups 3 and 4, respectively). A thin middle section from all of the kidneys were cut and immediately fixed in 10% formalin before being embedded in paraffin for sectioning (4 μm) and histological evaluation. The remaining portion of the kidneys were quickly frozen in liquid nitrogen and stored in −80° C. until needed for biochemistry analyses.
as §2

[6] = test system: mitochondrial respiratory complex I; assay: as above; conditions: rat kidneys, 4-h CS, 100 μM
Procedure: as §3, §2

[7] = porcine kidneys during cold preservation

COC1=C(OC)C(=O)C(CCCCCCCCCC[P+](c2ccccc2)(c2ccccc2)c2ccccc2)=C(C)C1=O [MitoQ, mitoquinone]
protection of Complex II/III activity, 24-h versus 48-h CS ([1]; porcine ex vivo renal model): at 24-h better than at 48-h
Protection of Complex II/III ([1]; porcine kidneys, 24-h cold preservation, MitoQ (100 μM)): significant
protection of porcine complex II/III ([1]; porcine kidneys, 24 hr cold preservation): protected
nitrotyrosine expression levels, combined cortex and medulla (porcine kidneys; [7]): reduced
nitrotyrosine staining (porcine kidneys; [7]): significantly decreased; also recorded: reduction
nitrotyrosine expression levels in the cortex (porcine kidneys; porcine kidneys, 24 and 48 hr): significantly lower
complex II inactivation [2]: completely prevented
complex I inactivation [3]: completely prevented
respiratory complex dysfunction [4]: blunted
complex II inactivation [5]: protected
complex I inactivation [6]: protected
